Experiment: gradient 5% acetonitrile 3 min, to 50% in 2 min, to 85% in 15 min, held 3 min, 100 µL/min
Conditions: column: Zorbax Extend-C18 2.1 x 50 mm; eluents: water / acetonitrile, 0.1% formic acid
Summary of the method: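 Values are retention times taken from adduct peaks that software picked and an analyst inspected. The pure standards were run as mixtures of ~100 molecules on HPLC linked to a quadrupole time-of-flight mass spectrometer, in positive and negative ionization mode. A Zorbax Extend-C18 column (2.1 × 50 mm, 1.8 μm) was used at 100 μL/min with water and acetonitrile, each including 0.1% formic acid.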

Row | RP-LC retention time [s] | SMILES
1 | 1170 | Nc1nc(-c2ccc(Cl)cc2)nn1C(=O)Cc1ccc(Cl)cc1
2 | 1060 | Cc1ccc(S(=O)(=O)N2CCCC(C(=O)Nc3cc(-c4nc(C)cs4)sc3C)C2)cc1 (centres undefined)
3 | 934 | CC(C)(C)CC(=O)N1CCc2nc(-c3ccccc3)ncc2C1
4 | 1140 | Cc1cccc2sc(NC(=O)Cc3csc(Nc4ccc(Cl)cn4)n3)nc12
5 | 740 | CCCC(=O)N1CCCN(C2=NS(=O)(=O)C(c3ccccc3)=C2C)CC1
6 | 835 | COc1ccc(-c2noc(C3CCCN3C(=O)c3ccoc3)n2)cc1 (centres undefined)
7 | 576 | CCOc1ccc(N2C(=O)Nc3ccccc3C2(O)C(=O)NCCCN2CCCCC2)cc1 (centres undefined)
8 | 597 | CCC(=O)NCC12CCCC=C1NC(=O)CC2 (centres undefined)
9 | 763 | CC(=O)N1CCc2cc(N3CC(C(=O)NCc4ccccc4F)CC3=O)ccc21 (centres undefined)
10 | 973 | CC(C)N1C(=O)c2cccnc2Sc2cc(NC(=O)c3c(F)cccc3Cl)ccc21
11 | 656 | CCCc1ccc(S(=O)(=O)N2CCc3nc[nH]c3C2)cc1
12 | 653 | CCN1CCN(C(=O)c2cn(-c3ccc(-c4nc(C(C)(C)C)no4)cn3)cn2)CC1
13 | 718 | COc1cc(NC(=O)c2[nH]c3cc(C)sc3c2CN2CCOCC2)cc(OC)c1
14 | 707 | COc1ccc(OC)c(S(=O)(=O)NC2CCc3nn(CC4CC4)c(=O)n3CC2)c1 (centres undefined)
15 | 596 | COCCCN(CC(=O)N1CCNCC1)C(=O)c1ccc(F)c(Cl)c1
16 | 953 | CC1(C(=O)NCc2ccc(Cl)cc2)CN(S(C)(=O)=O)CC(=O)N1CCCc1ccccc1 (centres undefined)
17 | 583 | CCOCC(=O)Nc1c(C)nc2ccc(Cl)cn2c1=O
18 | 770 | O=c1c(=O)n(-c2ccccc2)ccn1Cc1cccc(C(F)(F)F)c1
19 | 1210 | CCOc1cccc(-c2noc(-c3nnn4c3COC(c3cccc(OC)c3)C4)n2)c1 (centres undefined)
20 | 814 | O=C1COc2ccc(S(=O)(=O)N3CCC(C(=O)NC4CCCc5ccccc54)CC3)cc2N1 (centres undefined)
21 | 814 | COc1ccc(NC(=O)C2CCN(S(=O)(=O)c3cc(-c4noc(C)n4)cs3)CC2)cc1OC
22 | 1100 | CC(C)OC(=O)Cn1nc(-c2nc(-c3cccc(Cl)c3)no2)ccc1=O

Row | RP-LC retention time [s] | SMILES
23 | 677 | CC(=O)c1ccc(S(=O)(=O)N2CCC[C@@H]2C(=O)NCc2csc(C)n2)cc1
24 | 1150 | COc1cccc(Cn2c(=O)c3sccc3n(Cc3nc(-c4ccccc4C)no3)c2=O)c1
25 | 578 | CCN1CCN(CCCNC(=O)C2=Cc3cc(OC)ccc3OC2)CC1
26 | 979 | CCOC(=O)c1nc(N2CCC(Cc3ccccc3)CC2)c2ccccc2n1
27 | 579 | CC(C)C(=O)N1CCCn2nc(-c3cccnc3)cc2C1
28 | 798 | Cc1ccc2c(NCc3ccc(F)cc3)c(-c3nc(C(C)C)no3)cnc2n1
29 | 716 | Cc1ccc(Cn2c(CN3CCC(C(=O)NC4CC4)CC3)cc3ccccc32)cc1
30 | 643 | COc1ccc(-c2cn3cccnc3n2)cc1NC(=O)c1cc(OC)c(OC)c(OC)c1
31 | 856 | O=C(NC1CCCCCC1)C1CCCN(C(=O)c2ccc(F)c(F)c2)C1 (centres undefined)
32 | 773 | O=S(=O)(c1cccnc1)N1CCC(c2ccccc2)C1 (centres undefined)
33 | 679 | COc1cc(-c2nc3ccc(Cl)cn3c2Nc2ccc3c(c2)OCO3)ccc1O
34 | 740 | Cc1ccc(C(=O)N2CCC[C@H]2c2nc(-c3ccccc3)n[nH]2)s1
35 | 820 | COc1ccccc1C(=O)N1C[C@H](c2nc(-c3ccccc3)no2)[C@@H](C)C1
36 | 1060 | CCOc1cccc(-c2noc(Cc3nnc(-c4ccccc4)o3)n2)c1
37 | 1280 | CCCOc1nc2ccccc2nc1N1CCCC(C(=O)N2CCN(c3ccc(OC)cc3)CC2)C1 (centres undefined)
38 | 1000 | O=S(=O)(NC1CCCCCC1)c1ccc2c(c1)-c1oncc1CO2
39 | 765 | O=C(Nc1cnc(N2CCCC2)nc1)c1ccc(Cl)cc1
40 | 586 | O=C(CN1C(=O)c2ccccc2C1=O)NCC1CCS(=O)(=O)C1 (centres undefined)
41 | 705 | O=C(CSCc1ccccc1)Nc1ccc(CC(=O)NC2CC2)cc1
42 | 836 | Cc1ccc(NC(=O)C2CCN(S(=O)(=O)c3cc(C(=O)N4CCCC4)n(C)c3)CC2)cc1C
43 | 790 | Cc1ccc(C(=O)N2CCOc3ccc(NC(=O)C4CC4)cc3C2)s1
44 | 1020 | CCCOC(=O)c1ccc(Nc2nc(C(=O)OCC)nc3ccccc23)cc1

Row | RP-LC retention time [s] | SMILES
45 | 1060 | CC(=O)c1ccc(NC(=O)c2cnn3c4c(cnc23)CCCCCC4)cc1
46 | 892 | O=C(C1CCCO1)N1N=C(c2ccc(Br)cc2)CC1c1ccco1 (centres undefined)
47 | 689 | COc1ccc(-n2c(CN3CCN(C(=O)Nc4cc(F)ccc4F)CC3)nc3cccnc32)cc1
48 | 571 | CCOC(=O)c1[nH]c(C)c(C(=O)NCCN(C)C)c1C
49 | 576 | Cc1noc([C@@H]2CN(Cc3cc(F)ccc3F)C[C@H]2CO)n1
50 | 1260 | CCOC(=O)c1c(C)oc2ncnc(Nc3cc(C)ccc3OC)c12
51 | 600 | CC(C)CN1CCn2cc(C(=O)NC3CCCCC3)nc2C1
52 | 872 | O=C(CN1C(=O)C2CCCCN2c2ccc(S(=O)(=O)N3CCCC3)cc21)N1CCCCC1 (centres undefined)
53 | 936 | COc1ccc(NS(=O)(=O)c2ccc(-c3nnc(C4CCC4)o3)o2)cc1Cl
54 | 1060 | COc1cccc(-n2cc(C(=O)OCC(=O)OC(C)C)c3ccccc3c2=O)c1
55 | 786 | O=C(C1=CN(c2ccc(F)c(Cl)c2)c2ccccc2S1(=O)=O)N1CCOCC1
56 | 1070 | COc1ccc(C(=O)N2CCc3cc(-c4csc(C5CC5)n4)ccc32)cn1
57 | 1050 | CC1(C)CC(=O)c2c(O)cc(OCC(=O)N3CCN(c4ccc(Cl)cc4)CC3)cc2O1
58 | 604 | COC(=O)C1=C(CN2CCN(C)CC2)NC(=O)NC1c1ccc(Cl)cc1 (centres undefined)
59 | 726 | COc1ccc(OCC(=O)N2CCC(Nc3cccnc3)C2)cc1 (centres undefined)
60 | 747 | CNC(=O)c1cccc2c1CCN2C(=O)Nc1ccc(C)cc1
61 | 889 | COc1cc(NS(=O)(=O)c2ccc(-c3c(C)noc3C)cc2)cc(OC)c1
62 | 621 | CC1(C)CC(=O)c2cnc(N3CCN(c4ccccn4)CC3)nc2C1
63 | 895 | CCN1c2ccc(Cl)cc2C(=O)NC12CCN(C(=O)Nc1ccccc1OC)CC2
64 | 627 | O=C(Nc1ccccc1Cl)N1CC(F)(F)C[C@H]1CN1CCCC1
65 | 1260 | CCc1ccccc1NC(=O)C1CCCN(c2nc3c(s2)c(C)nn3-c2cccc(F)c2)C1 (centres undefined)
66 | 586 | O=C1CCN(C(=O)c2ccsc2)CCCOCCN1

Row | RP-LC retention time [s] | SMILES
67 | 742 | COc1ccccc1N1CCN(c2ncc(C(=O)Nc3ccccc3)c(N)n2)CC1
68 | 630 | CCOc1ccc(NC(=O)Cn2c(N)nc(CC)cc2=O)cc1
69 | 1020 | Cc1ccc(-c2noc(C3CCCN3C(=O)NC3CCCCC3)n2)cc1 (centres undefined)
70 | 877 | COc1cccc(C(=O)N2CCN(c3nc4ccccc4n(C)c3=O)CC2)c1
71 | 1340 | O=C(COc1ccc(F)cc1)Nc1ccc(-c2nc(-c3ccc(Cl)cc3)no2)cc1
72 | 661 | O=C(CN1CCc2[nH]c3c(F)c(Cl)ccc3c(=O)c2C1)NCc1ccc2c(c1)OCO2
73 | 581 | CCc1cc(N2CCN(C(=O)c3ccc(C#N)cc3)CC2)nc2nncn12
74 | 716 | Cc1csc(-c2ccc(N3CCN(C(=O)c4ccoc4)CC3)nc2)n1
75 | 873 | Cc1csc(-c2cc(S(=O)(=O)NC(C)C)cn2CC(=O)N2CCCCC2)n1
76 | 877 | CC1(C)CC(=O)C2=C(C1)N=C1SCCC(=O)N1C2c1ccc(Cl)cc1 (centres undefined)
77 | 668 | CCOc1ccc(CC(=O)NC(C)C(=O)Nc2nc3ccccc3[nH]2)cc1OCC (centres undefined)
78 | 682 | Cc1c(NS(C)(=O)=O)cccc1-c1nc2cccnc2s1
79 | 642 | CCOc1ccc(NC(=O)N2CCC(n3cnc4cccnc43)CC2)cc1
80 | 803 | O=C(C1CCCN(c2ncnc3c2nc2n3CCCCC2)C1)N1CCN(c2ccccc2)CC1 (centres undefined)
81 | 814 | O=C(Nc1cccc(Cl)c1)c1cnn2c1CCCC2
82 | 958 | Cc1ccc(-n2ccc(=O)c(-c3nc(-c4ccccc4Cl)no3)n2)cc1
83 | 960 | O=C(Cn1cccc(-c2nc(-c3ccc(F)cc3)no2)c1=O)Nc1ccc(F)c(Cl)c1
84 | 1260 | Cc1ccc(-c2coc(-c3ccc(NC(=O)NCCc4ccccc4)cc3)n2)c(C)c1
85 | 576 | CC(=O)N1CCN(c2nc(-c3ccncc3)nc3c2CCC3)CC1
86 | 999 | CC1CCN(S(=O)(=O)c2ccc3nn(CC(=O)OC(C)(C)C)c(=O)n3c2)CC1
87 | 628 | CC(C)(C)NCC(O)COc1ccc(NC(=O)NC2CCCCC2)cc1 (centres undefined)

Row | SMILES | RP-LC retention time [s]
88 | COc1ccc2c(c1)C1(CCN(S(=O)(=O)c3ccc4c(c3)CC(=O)N4C)C1)C(=O)N2C (centres undefined) | 744
89 | C/C(=C\c1csc(C)n1)C1C[C@@H]2O[C@]2(C)CCC[C@H](C)[C@H](O)[C@@H](C)C(=O)C(C)(C)[C@@H](O)CC(=O)O1 (some centres undefined) | 901
